Results: the supplement of paper PMC10307832

What was measured:
Assay in all cases: relative viability (nuclei count vs DMSO), 5 days (fraction); higher = more cells survive
BI-D1870 + Palbociclib = compound: CC(C)CCN1c2nc(Nc3cc(F)c(O)c(F)c3)ncc2N(C)C(=O)C1C [BI-D1870] + CC(=O)c1c(C)c2cnc(Nc3ccc(N4CCNCC4)cn3)nc2n(C2CCCC2)c1=O [Palbociclib] (partner 0.5 µM)
Summary of the method: (§1)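 Lung cancer cell lines in 1536-well plates were dosed by pin tool the day after seeding, either with one drug alone or with a fixed anchor-drug dose plus five library-drug doses (not always all listed) in √10 steps. After 5 days, cells were fixed and their nuclei stained in one step (final 0.05% Triton X-100, 1% formaldehyde, 1 ug/ml Hoechst), then counted on 4× images. Relative viability is the nuclei count in treated wells divided by that in vehicle wells. Values are medians of duplicate plates.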

Zebularine + Bortezomib = compound: O=c1ncccn1[C@@H]1O[C@H](CO)[C@@H](O)[C@H]1O [Zebularine] + CC(C)C[C@H](NC(=O)[C@H](Cc1ccccc1)NC(=O)c1cnccn1)B(O)O [Bortezomib] (partner 0.002 µM)
Summary of the method: as §1

BI-D1870 + Crizotinib = compound: CC(C)CCN1c2nc(Nc3cc(F)c(O)c(F)c3)ncc2N(C)C(=O)C1C [BI-D1870] + C[C@@H](Oc1cc(-c2cnn(C3CCNCC3)c2)cnc1N)c1c(Cl)ccc(F)c1Cl [Crizotinib] (partner 1 µM)
Summary of the method: as §1

Zebularine + Vorinostat = compound: O=c1ncccn1[C@@H]1O[C@H](CO)[C@@H](O)[C@H]1O [Zebularine] + O=C(CCCCCCC(=O)Nc1ccccc1)NO [Vorinostat] (partner 1 µM)
Summary of the method: as §1

Row | Cell Line | relative viability (BI-D1870 + Palbociclib; first compound 0.04 µM) | relative viability (BI-D1870 + Palbociclib; first compound 0.1265 µM) | relative viability (BI-D1870 + Palbociclib; first compound 0.4 µM) | relative viability (BI-D1870 + Palbociclib; first compound 1.265 µM) | relative viability (BI-D1870 + Palbociclib; first compound 4 µM) | relative viability (Zebularine + Bortezomib; first compound 1 µM) | relative viability (Zebularine + Bortezomib; first compound 3.162 µM) | relative viability (Zebularine + Bortezomib; first compound 10 µM) | relative viability (Zebularine + Bortezomib; first compound 31.62 µM) | relative viability (Zebularine + Bortezomib; first compound 100 µM) | relative viability (BI-D1870 + Crizotinib; first compound 0.04 µM) | relative viability (BI-D1870 + Crizotinib; first compound 0.1265 µM) | relative viability (BI-D1870 + Crizotinib; first compound 0.4 µM) | relative viability (BI-D1870 + Crizotinib; first compound 1.265 µM) | relative viability (BI-D1870 + Crizotinib; first compound 4 µM) | relative viability (Zebularine + Vorinostat; first compound 1 µM) | relative viability (Zebularine + Vorinostat; first compound 3.162 µM) | relative viability (Zebularine + Vorinostat; first compound 31.62 µM) | relative viability (Zebularine + Vorinostat; first compound 100 µM) | relative viability (Zebularine + Vorinostat; first compound 10 µM)
1 | HCC-78 | 0.456 | 0.489 | 0.405 | 0.462 | 0.454 | 0.497 | 0.512 | 0.407 | 0.42 | 0.355 | 0.365 | 0.318 | 0.309 | 0.295 | 0.245 | 0.535 | 0.462 | 0.444 | 0.337 | –
2 | HCC-366 | 0.422 | 0.404 | 0.329 | 0.445 | 0.376 | 1.05 | 0.976 | 0.292 | 0.685 | 0.116 | 0.694 | 0.485 | 0.471 | 0.933 | 0.378 | 0.488 | 0.372 | 0.343 | 0.184 | 0.26
3 | HCC-827 | 0.444 | 0.431 | 0.421 | 0.446 | 0.432 | 1.12 | 1.06 | 0.875 | 0.773 | 0.506 | 0.97 | 0.912 | 0.95 | 0.947 | 0.821 | 1.04 | 0.811 | 0.478 | 0.361 | 0.77
4 | HOP-62 | 0.508 | 0.419 | 0.496 | 0.522 | 0.405 | 0.593 | 0.741 | 0.547 | 0.201 | 0.143 | 1.08 | 0.986 | 0.963 | 1.01 | 0.915 | 0.717 | 0.474 | 0.203 | 0.22 | 0.365
5 | IA-LM | – | – | – | – | – | 0.63 | 0.892 | 0.617 | 1.03 | 0.672 | 1.19 | 0.942 | 0.845 | 0.569 | 0.176 | 1.01 | 0.697 | 1.02 | 0.854 | 0.365
6 | LC-2-ad | 0.577 | 0.471 | 0.509 | 0.477 | 0.401 | 1.09 | 0.76 | 0.521 | 0.605 | 0.148 | 0.51 | 0.454 | 0.394 | 0.544 | 0.434 | 0.759 | 0.691 | 0.644 | 0.324 | 0.527
7 | LCLC-97TM1 | 0.262 | 0.217 | 0.171 | 0.217 | 0.17 | 1.41 | 0.627 | 0.473 | 0.253 | 0.217 | 0.361 | 0.361 | 0.36 | 0.57 | 0.312 | 0.529 | 0.253 | 0.157 | 0.152 | 0.33
8 | LK-2 | 0.803 | 0.842 | 0.598 | 0.701 | 0.672 | – | – | – | – | – | 0.187 | 0.233 | 0.232 | 0.274 | 0.264 | 0.277 | 0.315 | 0.177 | 0.28 | 0.209
9 | NCI-H358 | 0.121 | 0.124 | 0.117 | 0.128 | 0.126 | – | – | – | – | – | 0.772 | 0.598 | 0.475 | 0.456 | 0.213 | 0.837 | 0.696 | 0.358 | 0.223 | 0.327
10 | NCI-H522 | 1.03 | 1.06 | 0.943 | 0.975 | 0.788 | – | – | – | – | – | – | – | – | – | – | 0.797 | 0.938 | 1.01 | 0.778 | 0.802
11 | NCI-H596 | – | – | – | – | – | 1.06 | 1.1 | 0.725 | 1.23 | 0.986 | 0.97 | 0.982 | 0.981 | 1.01 | 1.16 | 0.628 | 0.598 | 0.577 | 0.612 | 0.358
12 | NCI-H1299 | – | – | – | – | – | 1.01 | 1.06 | 0.969 | 1.08 | 0.747 | 0.971 | 0.902 | 0.965 | 0.885 | 0.814 | – | – | – | – | –
13 | NCI-H1395 | 0.649 | 0.603 | 0.64 | 0.717 | 0.638 | – | – | – | – | – | – | – | – | – | – | 0.7 | 0.753 | 0.655 | 0.515 | 0.661
14 | NCI-H1563 | – | – | – | – | – | 0.826 | 1.02 | 0.874 | 1.04 | 0.928 | 0.878 | 0.893 | 0.842 | 0.905 | 0.905 | – | – | – | – | –
15 | NCI-H1648 | 0.285 | 0.273 | – | 0.308 | 0.259 | – | – | – | – | – | – | – | – | – | – | 0.554 | 0.494 | 0.262 | 0.48 | 0.479
16 | NCI-H1703 | – | – | – | – | – | 0.273 | 0.302 | 0.296 | 0.512 | 0.411 | 1.16 | 0.613 | 0.467 | 0.756 | 0.356 | – | – | – | – | –
17 | NCI-H1792 | 0.635 | 0.613 | 0.679 | 0.719 | 0.479 | 0.989 | 0.932 | 0.369 | 0.382 | 0.359 | 1.06 | 0.994 | 0.908 | 1.13 | 0.858 | – | – | – | – | –
18 | NCI-H1793 | 0.369 | 0.274 | 0.291 | 0.391 | 0.318 | – | – | – | – | – | – | – | – | – | – | 0.819 | 0.895 | 0.448 | 0.328 | 0.41
19 | NCI-H1944 | 0.335 | 0.308 | 0.308 | 0.332 | 0.33 | – | – | – | – | – | 1.19 | 0.978 | 1.05 | 1.36 | 1.11 | 0.534 | 0.573 | 0.603 | 0.458 | 0.414
20 | NCI-H2170 | 0.455 | 0.38 | 0.423 | 0.447 | 0.398 | – | – | – | – | – | 1.31 | 1.06 | 1.24 | 1.24 | 1.06 | 0.886 | 0.842 | 0.868 | 0.581 | 0.533
21 | NCI-H2342 | 0.508 | 0.511 | 0.528 | 0.528 | 0.559 | – | – | – | – | – | – | – | – | – | – | 0.863 | 0.642 | 0.679 | 0.712 | 0.674
22 | SK-MES-1 | 0.342 | 0.318 | 0.314 | 0.285 | 0.266 | – | – | – | – | – | 1.09 | 0.88 | 0.864 | 0.78 | 0.569 | 1.28 | 1.18 | 1.09 | 0.351 | 0.914
23 | SW 900 | 0.697 | 0.478 | 0.511 | 0.536 | 0.517 | – | – | – | – | – | – | – | – | – | – | 0.497 | 0.667 | 0.67 | 0.503 | –
